Measurements from patent publication EP0442958B1, “PHARMACEUTICAL COMPOSITION FOR OPHTHALMIC USE COMPRISING A WATER SOLUBLE ACID ADDITION SALT OF IBOPAMINE” (ZAMBON GROUP S.p.A., priority 1988, dated 1990).
Where a name gives a salt, the structure may show the parent alone.

Key:
[1] = well known, WO 86/03970; cited from earlier work
[2] = Stability of aqueous ibopamine solutions (ibopamine titer); type: physicochemical; conditions: aqueous solutions buffered at pH 4.5, room temperature

SMILES	mydriatic activity [1]	period for which ibopamine titer remains substantially unchanged [2] [days]
CNCCc1ccc(OC(=O)C(C)C)c(OC(=O)C(C)C)c1 [ibopamine, epinine 3,4-0-diisobutyrate]	endowed with mydriatic activity	–
CNCCc1ccc(OC(=O)C(C)C)c(OC(=O)C(C)C)c1 [ibopamine hydrochloride, Ibopamine hydrochloride]	–	20 to 25
